Legend:
[1] = test system: P. torulosum, P. oopapillum, P. sylvaticum and P. lutarium; experiment: Greenhouse Pythium assay in soybean, consortium of 4 Pythium species; assay type: in vivo, Pythium spp.
Experimental: (§1) A greenhouse experiment was conducted is to evaluate the ability of Methylobacterium strains to suppress Pythium disease in soybean. Methylobacterium treatments were compared to treatments with metalaxyl at various rates to determine if Methylobacterium strains can provide protection beyond and in addition to the level of protection provided by commonly used agronomic seed treatments. The experiment was designed to allow for growth of plants for in the presence of moderate levels of Pythium. spp. to determine impacts on emergence, % dead seed and root rot incidence and severity.
(§2) Pythium inoculants were prepared by mixing 453 g of parboiled rice and 323 mL of distilled water, placing the rice in a vented autoclavable plastic bag, and autoclaving 2×40 minutes with each cycle separated by 24 hours. Rice was inoculated with 3-4-day-old Pythium cultures and incubated for 7-10 days at 23 °C in the dark. The inoculum was then dried for 2 days.
(§3) A 20 ml layer of rice inoculum is placed on soil in cups and additional soil layered on top of the inoculum to position the inoculum approximately 2-3 cm below the seeds to be planted. Water is added to the soil and 10 seeds are planted in each cup. Domes are placed over the cups and the cups are placed in growth chambers with temperature set at 230C, and on a diurnal cycle of 16 h light and 8 h dark. The seeds are incubated for 14 days at 23 °C. For experiments to assess activity of Methylobacterium strains against a consortium of 4 Pythium species, the seeds are incubated for 14 days at 130C and for an additional 7 days at 23 °C.
(§4) Plants are rated when the first trifoliate is fully emerged and open to determine total plant weight, number of seedlings and number of dead seeds. Disease incidence is evaluated as percent plants with rotted roots and disease severity as percent rotted root tissue for each seedling.
Results from inoculation with a consortium of 4 Pythium species at alternating temperature of 130C and 230C are shown in Tables 35-36 below. The four species, which are all important pathogens of corn and soybean, are P. torulosum, P. oopapillum, P. sylvaticum and P. lutarium.

Pythium sylvaticum = experiment: Greenhouse Pythium assay in soybean, Pythium sylvaticum; assay type: in vivo
Experimental: as §1, §2, §3, §4

Pythium lutarium = experiment: Greenhouse Pythium assay in soybean, Pythium lutarium; assay type: in vivo
Experimental: as §1, §2, §3, §4

Compound: COCC(=O)N(c1c(C)cccc1C)C(C)C(=O)OC (stereo not drawn) [metalaxyl]
- Mean Dead Seed (%) ([1]; Table 35, 0.35 Fl. oz/cwt): 6%
- Mean Emergence (%) ([1]; Table 35, 0.35 Fl. oz/cwt): 94%
- Mean Dead Seed (%) ([1]; Table 35, 0.75 Fl. oz/cwt): 2%
- Mean Emergence (%) ([1]; Table 35, 0.75 Fl. oz/cwt): 100%
- Mean Dead Seed (%) ([1]; Table 35, 1.25 Fl. oz/cwt): 2%
- Mean Emergence (%) ([1]; Table 35, 1.25 Fl. oz/cwt): 94%
- Root Rot INC (%) ([1]; Table 36, 0.35 Fl. oz/cwt): 94%
- Root Rot Severity (%) ([1]; Table 36, 0.35 Fl. oz/cwt): 13%
- Root Rot INC (%) ([1]; Table 36, 0.75 Fl. oz/cwt): 100%
- Root Rot Severity (%) ([1]; Table 36, 0.75 Fl. oz/cwt): 12%
- Root Rot INC (%) ([1]; Table 36, 1.25 Fl. oz/cwt): 94%
- Root Rot Severity (%) ([1]; Table 36, 1.25 Fl. oz/cwt): 9%
- % Dead Seed (Pythium sylvaticum; Table 31, 0.35 Fl. oz/cwt): 18%
- Emergence (Pythium sylvaticum; Table 31, 0.35 Fl. oz/cwt): 82
- Mean Emergence (%) (Pythium sylvaticum; Table 32, 0.35 Fl. oz/cwt): 78%
- Mean Root Rot Severity (%) (Pythium sylvaticum; Table 32, 0.35 Fl. oz/cwt): 17%
- Mean Emergence (%) (Pythium sylvaticum; Table 32, 0.75 Fl. oz/cwt): 92%
- Mean Root Rot Severity (%) (Pythium sylvaticum; Table 32, 0.75 Fl. oz/cwt): 18%
- Mean Emergence (%) (Pythium sylvaticum; Table 32, 1.25 Fl. oz/cwt): 78%
- Mean Root Rot Severity (%) (Pythium sylvaticum; Table 32, 1.25 Fl. oz/cwt): 21%
- % Dead Seed (Pythium lutarium; Table 33, 0.75 Fl. oz/cwt): 3%
- Mean Emergence (%) (Pythium lutarium; Table 33, 0.75 Fl. oz/cwt): 97%
- % Dead Seed (Pythium lutarium; Table 33, 1.25 Fl. oz/cwt): 67%
- Mean Emergence (%) (Pythium lutarium; Table 33, 1.25 Fl. oz/cwt): 93%
- Mean Root Rot Incidence (%) (Pythium lutarium; Table 34, 0.35 Fl. oz/cwt): 95%
- Mean Root Rot Severity (%) (Pythium lutarium; Table 34, 0.35 Fl. oz/cwt): 13%
- Mean Root Rot Incidence (%) (Pythium lutarium; Table 34, 0.75 Fl. oz/cwt): 95%
- Mean Root Rot Severity (%) (Pythium lutarium; Table 34, 0.75 Fl. oz/cwt): 10%
- Mean Root Rot Incidence (%) (Pythium lutarium; Table 34, 1.25 Fl. oz/cwt): 93%
- Mean Root Rot Severity (%) (Pythium lutarium; Table 34, 1.25 Fl. oz/cwt): 11%

Reference: patent US11930822B2, “Methylobacterium compositions for fungal disease control” (priority 2017, dated 2024)
